Structures can show the parent of a compound that is named as a salt.
Assays:
[1] = molecular target: T1, 6His-Tev-LRRK2 (1326-2527) (Homo sapiens, UniProt Q5S007); test: LRRK2 peptide substrate assay; format: biochemical; conditions: mean pIC50 of multiple test results
T1 construct: A LRRK2 cDNA encoding residues 1326-2527 was received from Dundee University; made in house; host or cells: Spodoptera frugiperda (Sf9) insect cells, baculovirus (pFB-HTb)
T1 sequence (Q5S007 1326-2527): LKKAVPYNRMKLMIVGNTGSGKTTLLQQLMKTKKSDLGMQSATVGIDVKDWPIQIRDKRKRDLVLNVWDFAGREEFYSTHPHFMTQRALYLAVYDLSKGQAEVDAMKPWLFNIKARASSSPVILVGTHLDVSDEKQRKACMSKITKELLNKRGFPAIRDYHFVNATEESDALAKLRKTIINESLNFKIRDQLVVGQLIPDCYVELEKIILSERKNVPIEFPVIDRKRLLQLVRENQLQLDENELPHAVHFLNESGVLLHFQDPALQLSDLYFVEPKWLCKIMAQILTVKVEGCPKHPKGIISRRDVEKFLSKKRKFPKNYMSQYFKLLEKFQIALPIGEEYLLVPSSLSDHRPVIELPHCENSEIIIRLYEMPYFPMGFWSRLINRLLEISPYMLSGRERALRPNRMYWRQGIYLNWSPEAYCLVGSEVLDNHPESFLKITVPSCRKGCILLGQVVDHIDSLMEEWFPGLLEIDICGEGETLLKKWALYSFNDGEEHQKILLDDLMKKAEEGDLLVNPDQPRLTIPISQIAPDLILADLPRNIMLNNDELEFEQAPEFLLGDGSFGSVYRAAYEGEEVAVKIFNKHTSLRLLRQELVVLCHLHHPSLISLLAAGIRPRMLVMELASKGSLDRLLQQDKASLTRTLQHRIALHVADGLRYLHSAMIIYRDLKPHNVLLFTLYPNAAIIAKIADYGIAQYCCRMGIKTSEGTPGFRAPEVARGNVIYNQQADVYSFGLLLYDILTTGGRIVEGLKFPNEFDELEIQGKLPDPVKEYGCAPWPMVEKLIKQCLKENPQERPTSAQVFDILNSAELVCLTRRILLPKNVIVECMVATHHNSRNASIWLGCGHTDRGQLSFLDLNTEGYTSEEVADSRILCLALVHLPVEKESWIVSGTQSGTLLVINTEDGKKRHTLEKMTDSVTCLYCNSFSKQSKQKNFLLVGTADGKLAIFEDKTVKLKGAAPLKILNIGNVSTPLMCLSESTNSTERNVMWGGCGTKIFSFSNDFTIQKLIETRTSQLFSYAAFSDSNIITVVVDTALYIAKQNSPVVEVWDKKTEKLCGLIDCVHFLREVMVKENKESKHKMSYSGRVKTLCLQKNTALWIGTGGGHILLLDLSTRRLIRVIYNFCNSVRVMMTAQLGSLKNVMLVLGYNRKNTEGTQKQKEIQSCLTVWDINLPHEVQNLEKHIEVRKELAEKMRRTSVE
Protocol: (§1) Compounds of formula (I) may be tested for in vitro kinase activity in accordance with the following assays, using the non natural, in vitro, substrates moesin and the Longer Biotin-LRRKtide. Moesin and a shorter version of the peptide were identified as substrates in Jaleel et al. (2007, Biochem J, 405: 307-317).
LRRK2 Peptide Substrate Assay
a) 100 nl of a 1:4 serial dilution of test compound with a top final assay concentration of 30 μM is added to certain wells in a low volume 384 well black plate. 100 nl of DMSO is used in certain wells as controls.
(§2) b) 3 μl enzyme solution (80 nM purified recombinant 6His-Tev-LRRK2 (1326-2527) in assay buffer: 50 mM Hepes (pH 7.2), 10 mM MgCl2, 150 mM NaCl, 5% glycerol, 0.0025% triton X-100 and 1 mM DTT) is added to certain wells. 3 μl assay buffer is added to certain wells as a 100% inhibition (no enzyme) control. c) After incubation at room temperature for 30 minutes, 3 μl substrate solution (2 μM Biotin-LRRKtide peptide substrate and ATP at Km in assay buffer) is added to each well. Plates are then incubated for a further 1-2 hours at room temperature (incubation time varies depending upon rate and linearity of reaction with differing enzyme batches). d) 6 μl detection solution (50 nM Streptavidin SureLight® APC (PerkinElmer), 4 nM Eu-W1024 labelled anti-rabbit IgG antibody (PerkinElmer), 1:500 dilution (dilution determined on a batch to batch basis) of Phospho-Ezrin (Thr567)/Radixin (Thr564)/Moesin (Thr558) Polyclonal Antibody (New England Biolabs) and 60 mM EDTA in buffer: 40 mM Hepes (pH 7.2), 150 mM NaCl, 0.03% BSA) is added to each well. Plates are then incubated for a further 2 hours at room temperature before reading on a suitable plate reader (Excitation 330 nm, emission 620 nm (Eu) and 665 nm (APC)). Data is analysed using ActivityBase software (IDBS). LRRK2 AlphaScreen Desensitised Protein Substrate Assay a) 100 nl of a 1:4 serial dilution of test compound with a top final assay concentration of 30 μM is added to certain wells in a low volume 384 well black plate. 100 nl of DMSO is used in certain wells as controls. b) 3 μl enzyme solution (80 nM purified recombinant 6His-Tev-LRRK2 (1326-2527) in assay buffer: 50 mM Hepes (pH 7.2), 10 mM MgCl2, 150 mM NaCl, 5% glycerol, 0.0025% triton X-100 and 1 mM DTT) is added to certain wells. 3 μl assay buffer is added to certain wells as a 100% inhibition (no enzyme) control. c) After incubation at room temperature for 30 minutes, 3 μl substrate solution (200 nM GST-PS-Moesin (400-577) and 2 mM ATP in assay buffer) is added to each well. Plates are then incubated for 20 minutes at room temperature. d) 6 μl detection solution (1:250 dilution of AlphaLisa Protein A Acceptor beads (PerkinElmer), 1:64 dilution of AlphaLisa Gluthathione Donor beads (PerkinElmer) and 1:600 dilution (dilution determined on a batch to batch basis) of Phospho-Ezrin (Thr567)/Radixin (Thr564)/Moesin (Thr558) Polyclonal Antibody (New England Biolabs) in a buffer: 50 mM Hepes (pH 7.5), 250 mM NaCl, 60 mM EDTA, 1% PEG and 0.01% Brij 35) is added to each well. Plates are then incubated for a further 2 hours at room temperature in the dark before reading on an EnVision™ plate reader with AlphaScreen HTS turbo option module and AlphaScreen settings. Data is analysed using ActivityBase software (IDBS). Pharmacological Data

[2] = molecular target: T1, 6His-Tev-LRRK2 (1326-2527); test: LRRK2 AlphaScreen desensitised protein substrate assay; format: biochemical; conditions: mean pIC50 of multiple test results
Protocol: as §1, §2

[3] = stated as threshold, read-out: pIC50 in the LRRK2 peptide substrate assay (bounds) (converted)
[4] = stated as threshold, read-out: pIC50 in the LRRK2 alphascreen desensitised protein substrate assay (bounds) (converted)
[5] = Biotin-LRRKtide peptide substrate, ATP at Km, read-out: LRRK2 peptide substrate assay (pIC50) (converted)
[6] = GST-PS-Moesin (400-577) substrate, 2 mM ATP, read-out: LRRK2 alphascreen desensitized protein substrate assay (pIC50) (converted)

SMILES | IC50 [1, 3] | IC50 [2, 4] | IC50 [1, 5] | IC50 [2, 6]
O=C(Nc1ccnnc1)c1cc(Br)c(CN2CCOCC2)cc1OCc1ccccc1 [Example 1, 5-Bromo-4-(4-morpholinylmethyl)-2-[(phenylmethyl)oxy]-N-4-pyridazinylbenzamide] | ≤ 100 nM | ≤ 25100 nM | – | –
O=C(Nc1cccnc1)c1cc(Br)c(CN2CCOCC2)cc1OCc1ccccc1 [Example 2, 5-Bromo-4-(4-morpholinylmethyl)-2-[(phenylmethyl)oxy]-N-3-pyridinylbenzamide] | ≤ 10 nM | ≤ 316 nM | 10 nM | 251 nM
Cn1cc(-c2cc(C(=O)Nc3ccnnc3)c(OCc3ccccc3)cc2CN2CCOCC2)cn1 [Example 3, 5-(1-Methyl-1H-pyrazol-4-yl)-4-(4-morpholinylmethyl)-2-[(phenylmethyl)oxy]-N-4-pyridazinylbenzamide] | ≤ 100 nM | ≤ 25100 nM | – | –
Cn1cc(-c2cc(C(=O)Nc3cccnc3)c(OCc3ccccc3)cc2CN2CCOCC2)cn1 [Example 4, 5-(1-Methyl-1H-pyrazol-4-yl)-4-(4-morpholinylmethyl)-2-[(phenylmethyl)oxy]-N-3-pyridinylbenzamide] | ≤ 100 nM | ≤ 316 nM | 15.8 nM | 126 nM
Cc1cc(OCc2ccccc2)c(C(=O)Nc2ccnnc2)cc1Br [Example 5, 5-Bromo-4-methyl-2-[(phenylmethyl)oxy]-N-4-pyridazinyl benzamide] | ≤ 10 nM | ≤ 316 nM | – | –
Cc1cc(OCc2ccccc2)c(C(=O)Nc2cccnc2)cc1Br [Example 6, 5-Bromo-4-methyl-2-[(phenylmethyl)oxy]-N-3-pyridinylbenzamide] | ≤ 10 nM | ≤ 316 nM | – | –
Cc1cc(OCc2ccccc2)c(C(=O)Nc2cccnc2)cc1-c1cnn(C)c1 [Example 7, 4-Methyl-5-(1-methyl-1H-pyrazol-4-yl)-2-[(phenylmethyl)oxy]-N-3-pyridinylbenzamide] | ≤ 100 nM | ≤ 316 nM | 15.8 nM | 158 nM
Cc1cc(OCc2ccccc2)c(C(=O)Nc2ccnnc2)cc1-c1cnn(C)c1 [Example 8, 4-Methyl-5-(1-methyl-1H-pyrazol-4-yl)-2-[(phenylmethyl)oxy]-N-4-pyridazinylbenzamide] | ≤ 100 nM | ≤ 25100 nM | – | –
Cc1cc(C(=O)Nc2cccnc2)c(OCc2ccccc2)cc1Br [Example 9, 4-Bromo-5-methyl-2-[(phenylmethyl)oxy]-N-3-pyridinylbenzamide] | ≤ 10 nM | ≤ 316 nM | 10 nM | 126 nM
Cc1cc(C(=O)Nc2ccnnc2)c(OCc2ccccc2)cc1Br [Example 10, 4-Bromo-5-methyl-2-[(phenylmethyl)oxy]-N-4-pyridazinylbenzamide] | ≤ 10 nM | ≤ 316 nM | 6.31 nM | 100 nM
Cc1cc(C(=O)Nc2cccnc2)c(OCc2ccccc2)cc1-c1cnn(C)c1 [Example 11, 5-Methyl-4-(1-methyl-1H-pyrazol-4-yl)-2-[(phenylmethyl)oxy]-N-3-pyridinylbenzamide] | ≤ 10 nM | ≤ 316 nM | 7.94 nM | 50.1 nM
Cc1cc(C(=O)Nc2ccnnc2)c(OCc2ccccc2)cc1-c1cnn(C)c1 [Example 12, 5-Methyl-4-(1-methyl-1H-pyrazol-4-yl)-2-[(phenylmethyl)oxy]-N-4-pyridazinylbenzamide] | ≤ 10 nM | ≤ 316 nM | 10 nM | 100 nM
Cn1cc(-c2cc(OCc3ccc(F)cc3)c(C(=O)Nc3cccnc3)cc2CN2CCOCC2)cn1 [Example 13, 2-{[(4-Fluorophenyl)methyl]oxy}-4-(1-methyl-1H-pyrazol-4-yl)-5-(4-morpholinylmethyl)-N-3-pyridinylbenzamide] | ≤ 100 nM | ≤ 25100 nM | 79.4 nM | 794 nM
Cn1cc(-c2cc(OCc3ccc(F)cc3)c(C(=O)Nc3ccnnc3)cc2CN2CCOCC2)cn1 [Example 14, 2-{[(4-Fluorophenyl)methyl]oxy}-4-(1-methyl-1H-pyrazol-4-yl)-5-(4-morpholinylmethyl)-N-4-pyridazinylbenzamide] | ≤ 1260 nM | ≤ 25100 nM | – | –
Cn1cc(-c2cc(C(=O)Nc3cccc(Cl)c3)c(OCc3ccccc3)cc2CN2CCOCC2)cn1 [Example 50, 2-(benzyloxy)-N-(3-chlorophenyl)-5-(1-methyl-1H-pyrazol-4-yl)-4-(morpholinomethyl)benzamide, Hydrochloride] | ≤ 100 nM | – | – | –
Cn1cc(-c2cc(C(=O)Nc3cccc(Cl)c3)c(OCc3ccccc3)cc2CN2CCOCC2)cn1 [Example 51, 2-(benzyloxy)-N-(3-chlorophenyl)-5-(1-methyl-1H-pyrazol-4-yl)-4-(morpholinomethyl)benzamide, Maleic acid salt] | ≤ 100 nM | – | – | –
CN1CCN(C(=O)c2cc(OCc3ccccc3)c(C(=O)Nc3cccnc3)cc2Cl)CC1 [Example 54, 2-(benzyloxy)-5-chloro-4-(4-methylpiperazine-1-carbonyl)-N-(pyridin-3-yl)benzamide] | ≤ 100 nM | – | – | –

From patent US9365551B2, “2-(benzyloxy) benzamides as LRRK2 kinase inhibitors” (Glaxo Group Limited, priority 2010, dated 2016)
